Source: patent publication US20130040893A1, “TREATMENT OF PROLIFERATIVE DISORDERS” (TETRALOGIC PHARMACEUTICALS CORPORATION, priority 2005, published 2013)
Like-named read-outs stand apart in the source and are kept apart here. Values belong to the molecule of their own block, whether it stands above or below them. Residues, ends and D or L forms follow the SMILES beside them.

Experiments:
BIR-3 domain of cIAP-1 [1] = biological target: BIR-3 domain of cIAP-1 (Homo sapiens, UniProt Q13490); experiment: Fluorescence polarization binding assay, cIAP-1 BIR-3 domain
BIR-3 domain of cIAP-1 (Homo sapiens, UniProt Q13490), sequence (Q13490 266-352 limits assumed): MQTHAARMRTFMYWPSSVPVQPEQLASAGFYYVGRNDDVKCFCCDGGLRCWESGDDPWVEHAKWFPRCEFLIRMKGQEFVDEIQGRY
Experimental: (§6) IC50 values (Table I) were determined from the plot using nonlinear least-squares analysis using GraphPad Prism.
(§7) We have utilized the specificity of this IAP binding motif in a fluorescence polarization assay to measure the binding affinities for cIAP-1 Antagonists. The fluorescence polarization assay consists of FP peptide {Sri: What is “FP Peptide”?}, and the recombinant BIR3 domain of the XIAP protein. The FP peptide and mimics of cIAP-1 N-terminus compete for binding to the BIR3 protein. […] If a peptide, peptidomimetic, or other small molecule being tested is a competitor, then it succeeds in displacing the FP peptide, resulting in a low mP value. Molecules that compete with the FP peptide can be titrated and IC50 values determined (GraphPad Prism nonlinear regression curve-fitting program) by plotting mp value as the direct measure of fraction bound vs. the log of the compound concentration.

SK-OV-3 cells = experiment: MTT cell growth assay in SK-OV-3 ovarian cancer cells; type: cell-based; conditions: Homo sapiens
Experimental: The MTT assay is an example of an assay that has been used for measuring cell growth as previously described (Hansen, M. B., Nielsen, S. E., and Berg, K. (1989) J. Immunol. Methods 119, 203-210) and incorporated herein by reference in its entirety. Briefly, SK-OV-3 cells were seeded in 96-well plates in McCoy's medium containing 10% fetal bovine serum […] (10,000 per well) and incubated overnight at 37° C.
μM) and the plates were incubated at 37° C. for an additional 72 hrs. This incubation time was optimal for measuring inhibitory effects of different analogs. 50 microliters of 5 mg/mL MTT reagent to each well was added and the plates were incubated at 37° C. for 3 hours. At the end of incubation period, 50 microliters of DMSO was added to each well to dissolve cells and the optical density (OD) of the wells was measured with a microplate reader (Victor^2 1420, Wallac, Finland) at 535 nm. Cell survival (CS) was calculated by the following equation:
CS=(OD treated well/mean OD control wells)×100%.
The EC50 (Table 1), defined as the drug concentration that results in 50% CS, was derived by calculating the point where the dose-response curve crosses the 50% CS point using GraphPad Prism.

BIR-3 domain of XIAP = BIR-3 domain of XIAP (Homo sapiens, UniProt P98170); experiment: Fluorescence polarization binding assay, XIAP BIR-3 domain
BIR-3 domain of XIAP, sequence (P98170 241-356 limits assumed): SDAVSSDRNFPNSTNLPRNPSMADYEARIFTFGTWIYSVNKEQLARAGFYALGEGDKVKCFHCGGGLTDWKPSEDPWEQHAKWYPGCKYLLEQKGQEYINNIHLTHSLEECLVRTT
Experimental: as §6, §7

BIR-3 domain of cIAP-1 [2] = experiment: Fluorescence polarization binding assay, cIAP-1 BIR-3 domain; conditions: cIAP-1 relative to XIAP
Experimental: as §6, §7

OVCAR-3 cell line = experiment: Synergistic toxicity with SN-38, MTT matrix; type: cell-based
Source text: MTT assays were setup by testing a matrix of concentrations of both drugs.

cIAP-1 = biological target: T1, cIAP-1 (Homo sapiens, UniProt Q13490); experiment: Western blot of cIAP-1 degradation in SKOV3 cells; type: cell-based; conditions: SK-OV-3 cells, 20 hrs, absence of bortezomib
T1 construct: endogenous in cells; host or cells: SKOV3 (SK-OV-3) cells
T1 sequence (Q13490 whole entry): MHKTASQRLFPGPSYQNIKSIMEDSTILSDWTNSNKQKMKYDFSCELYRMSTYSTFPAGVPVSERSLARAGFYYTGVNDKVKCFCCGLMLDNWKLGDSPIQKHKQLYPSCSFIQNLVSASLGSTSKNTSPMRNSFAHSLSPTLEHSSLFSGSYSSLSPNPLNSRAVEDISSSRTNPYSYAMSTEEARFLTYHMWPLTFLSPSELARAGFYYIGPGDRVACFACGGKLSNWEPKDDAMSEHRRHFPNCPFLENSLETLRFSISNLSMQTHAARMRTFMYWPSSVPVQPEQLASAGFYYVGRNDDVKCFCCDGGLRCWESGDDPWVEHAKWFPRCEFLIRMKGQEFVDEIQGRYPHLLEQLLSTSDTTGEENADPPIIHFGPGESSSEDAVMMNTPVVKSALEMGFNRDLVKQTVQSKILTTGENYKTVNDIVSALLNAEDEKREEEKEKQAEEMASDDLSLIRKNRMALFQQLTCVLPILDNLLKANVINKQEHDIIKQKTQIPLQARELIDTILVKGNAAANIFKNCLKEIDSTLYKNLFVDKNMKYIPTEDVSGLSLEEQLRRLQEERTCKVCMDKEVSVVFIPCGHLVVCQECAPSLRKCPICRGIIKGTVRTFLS
Experimental: (§1) SKOV3 cells were passed into six 60×15 mm tissue culture dishes 2 days before experiment. Cells appeared to be ˜80% confluent at time of harvest. […] A 10-fold dilution of this solution into medium A gave the 100 nM working solution.
(§2) Western blot analysis was carried out using standard technique. Briefly, cells were lysed using the MPER mammalian cell lysis solution (Bio-Rad #78503) to which 10 μl/mL of a 100× solution of HALT protease inhibitor cocktail (Bio-Rad #78410) has been added. To each dish of cells, 200 μl of the lysis solution plus protease inhibitors is added. The cells in each dish are scraped using a cell scraper and allowed to incubate with the reagent for 10 minutes. The lysates were transferred to pre-chilled microfuge tubes and spun for 20 minutes at 15,000×g at 4° C. The supernatant was transferred to a clean, chilled microfuge tube.
(§3) Next, the total protein content of the lysates was determined using the BCA Protein Assay according to the manufacturer's protocol and using interpolation from a standard curve generated with BSA.
(§4) The samples were normalized for protein content during preparation for gel electrophoresis. The samples were prepared using 2× Laemmli Sample buffer to which 200 mM DTT was added. […]

XIAP = biological target: T2, XIAP (Homo sapiens, UniProt P98170); experiment: Western blot of XIAP degradation in SKOV3 cells; type: cell-based; conditions: SK-OV-3 cells, 20 hrs, absence of bortezomib
T2 construct: SKOV3 cells were passed into six 60×15 mm tissue culture dishes; endogenous in cells; host or cells: SKOV3 (SK-OV-3) cells
T2 sequence (P98170 whole entry): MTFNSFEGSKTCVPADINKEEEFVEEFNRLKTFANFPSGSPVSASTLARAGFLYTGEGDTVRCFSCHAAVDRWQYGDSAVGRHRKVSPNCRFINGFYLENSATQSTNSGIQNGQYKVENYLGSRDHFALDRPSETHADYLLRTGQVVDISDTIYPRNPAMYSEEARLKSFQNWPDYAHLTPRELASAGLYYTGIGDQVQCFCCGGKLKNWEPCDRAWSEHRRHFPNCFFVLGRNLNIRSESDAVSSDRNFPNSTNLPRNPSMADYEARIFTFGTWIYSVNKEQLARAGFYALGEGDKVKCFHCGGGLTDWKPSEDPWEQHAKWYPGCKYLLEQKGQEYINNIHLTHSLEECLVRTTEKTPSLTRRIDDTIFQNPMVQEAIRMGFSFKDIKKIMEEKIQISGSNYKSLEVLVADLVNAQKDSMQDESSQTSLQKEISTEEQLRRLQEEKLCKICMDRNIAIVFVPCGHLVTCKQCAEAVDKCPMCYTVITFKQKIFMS
Experimental: as §1, §2, §3, §4

SK-OV-3^S cells = experiment: TRAIL sensitivity MTT assay in parental SK-OV-3 cells; type: cell-based
Experimental: (§5) Another unexpected observation we made was with respect to TRAIL sensitivity. IAP Antagonist-resistant SK-OV-3 cells (SK-OV-3^R) were generated by exposing the parental SK-OV-3 cells (SK-OV-3^S) to an IAP antagonist compound at a concentration that kills 95% of cells. Three days later, viable cells were transferred to a fresh flask and grown to confluency. Two weeks later, the cells were tested for IAP Antagonist sensitivity in an MTT assay as described above and as expected, found these cells to be resistant to IAP Antagonist cytotoxicity.

SK-OV-3^R cells = experiment: TRAIL sensitivity MTT assay in IAP Antagonist-resistant SK-OV-3 cells; type: cell-based
Experimental: as §5

[3] = SK-OV-3 cells, 72 hrs, read-out: MTT EC50

Molecule: CC(C)[C@H](NC(=O)[C@H](C)N)C(=O)N1CCC[C@H]1C(=O)N[C@@H](Cc1ccccc1)C(=O)O [AVPF, reference compound] (H-AVPF-OH)
IC50 (BIR-3 domain of cIAP-1 [1]): 0.01 to 0.1 µM

Molecule: CN[C@@H](C)C(=O)N[C@H](C(=O)N1C[C@@H](OC(C)=O)C[C@H]1Cc1c[nH]c2ccccc12)C(C)(C)C [E]
EC50 (SK-OV-3 cells; [3]): 0.01 to 0.1 µM | IC50 (BIR-3 domain of cIAP-1 [1]): < 0.01 µM | IC50 (BIR-3 domain of XIAP): > 0.1 µM

Molecule: CN[C@@H](C)C(=O)N[C@H](C(=O)N1C[C@@H](OC(C)=O)C[C@H]1Cc1c[nH]c2ccccc12)C(C)C [F]
EC50 (SK-OV-3 cells; [3]): 0.01 to 0.1 µM | IC50 (BIR-3 domain of cIAP-1 [1]): < 0.01 µM | IC50 (BIR-3 domain of XIAP): 0.01 to 0.1 µM

Molecule: CN[C@@H](C)C(=O)N[C@H](C(=O)N1CCC[C@H]1Cc1cn(CCOCCn2cc(C[C@@H]3CCCN3C(=O)[C@@H](NC(=O)[C@H](C)NC)C3CCCCC3)c3ccccc32)c2ccccc12)C1CCCCC1 [K]
EC50 (SK-OV-3 cells; [3]): 0.01 to 0.1 µM | IC50 (BIR-3 domain of cIAP-1 [1]): 0.01 to 0.1 µM | IC50 (BIR-3 domain of XIAP): > 0.1 µM

Molecule: CC(C)[C@@H](NC(=O)[C@@H](C)N)C(=O)N1CCC[C@@H]1Cc1c(-c2ccc(-c3oc4ccccc4c3C[C@H]3CCCN3C(=O)[C@H](NC(=O)[C@@H](C)N)C(C)C)cc2)[nH]c2ccccc12 [L]
EC50 (SK-OV-3 cells; [3]): < 0.01 µM | IC50 (BIR-3 domain of cIAP-1 [1]): 0.01 to 0.1 µM | IC50 (BIR-3 domain of XIAP): > 0.1 µM

Molecule: CN[C@@H](C)C(=O)N[C@H](C(=O)N1C[C@@H](O)C[C@H]1Cc1c(-c2ccc(-c3[nH]c4ccccc4c3C[C@@H]3C[C@H](O)CN3C(=O)[C@@H](NC(=O)[C@H](C)NC)C(C)(C)C)cc2)[nH]c2ccccc12)C(C)(C)C [M]
EC50 (SK-OV-3 cells; [3]): 0.01 to 0.1 µM | IC50 (BIR-3 domain of cIAP-1 [1]): 0.01 to 0.1 µM | IC50 (BIR-3 domain of XIAP): 0.01 to 0.1 µM

Molecule: CN[C@@H](C)C(=O)N[C@H](C(=O)N1CCC[C@H]1Cc1c(-c2ccc(-c3c(C[C@@H]4CCCN4C(=O)[C@@H](NC(=O)[C@H](C)NC)C(C)(C)C)c4ccc(F)cc4n3CCO)cc2)n(CCO)c2cc(F)ccc12)C(C)(C)C [N]
EC50 (SK-OV-3 cells; [3]): < 0.01 µM | IC50 (BIR-3 domain of cIAP-1 [1]): 0.01 to 0.1 µM | IC50 (BIR-3 domain of XIAP): 0.01 to 0.1 µM

Molecule: CN[C@@H](C)C(=O)N[C@H](C(=O)N1CCC[C@H]1Cc1c(-c2ccc(-c3c(C[C@@H]4CCCN4C(=O)[C@@H](NC(=O)[C@H](C)NC)C(C)C)c4ccc(F)cc4n3CCOC(C)=O)cc2)n(CCOC(C)=O)c2cc(F)ccc12)C(C)C [O]
EC50 (SK-OV-3 cells; [3]): > 1 µM | IC50 (BIR-3 domain of cIAP-1 [1]): > 1 µM | IC50 (BIR-3 domain of XIAP): > 1 µM

Molecule: CN[C@@H](C)C(=O)N[C@H](C(=O)N1CCC[C@H]1Cc1c(-c2ccc(C(=O)OC)cc2)n(CCOCCOCCOC)c2cc(F)ccc12)C(C)(C)C [P]
EC50 (SK-OV-3 cells; [3]): < 0.01 µM | IC50 (BIR-3 domain of cIAP-1 [1]): 0.01 to 0.1 µM | IC50 (BIR-3 domain of XIAP): 0.01 to 0.1 µM

Molecule: CN[C@@H](C)C(=O)N[C@H](C(=O)N1CCC[C@H]1Cc1c(-c2ccc(F)cc2)n(CCOCCOCCOC)c2cc(F)ccc12)C(C)(C)C [Q]
EC50 (SK-OV-3 cells; [3]): < 0.01 µM | IC50 (BIR-3 domain of cIAP-1 [1]): 0.01 to 0.1 µM | cIAP-1 protein by western blot (cIAP-1): complete disappearance | IC50 (BIR-3 domain of XIAP): 0.01 to 0.1 µM | XIAP protein by western blot (XIAP): complete disappearance

B1: TRAIL: tumor necrosis factor-related apoptosis-inducing ligand, member of the TNF superfamily (protein, UniProt P50591 1-281, looked up)
Tumor necrosis factor ligand …: MAMMEVQGGPSLGQTCVLIVIFTVLLQSLCVAVTYVYFTNELKQMQDKYSKSGIACFLKEDDSYWDPNDEESMNSPCWQVKWQLRQLVRKMILRTSEETISTVQEKQQNISPLVRERGPQRVAAHITGTRGRSNTLSSPNSKNEKALGRKINSWESSRSGHSFLSNLHLRNGELVIHEKGFYYIYSQTYFRFQEEIKENTKNDKQMVQYIYKYTSYPDPILLMKSARNSCWSKDAEYGLYSIYQGGIFELKENDRIFVSVTNEHLIDMDHEASFFGAFLVG
TRAIL sensitivity (SK-OV-3^S cells): resistant to TRAIL | TRAIL sensitivity (SK-OV-3^R cells): sensitive to TRAIL

Continued, in another order:

EC50 (SK-OV-3 cells; [3]): < 0.01 µM | IC50 (BIR-3 domain of cIAP-1 [1]): < 0.01 µM | IC50 (BIR-3 domain of XIAP): 0.01 to 0.1 µM
Molecule: CCC(C)[C@H](NC(=O)[C@H](C)NC)C(=O)N1CCC[C@H]1Cc1c2n(c3ccc(F)cc13)CCn1c-2c(C[C@@H]2CCCN2C(=O)[C@@H](NC(=O)[C@H](C)NC)C(C)CC)c2cc(F)ccc21 (stereo partly drawn) [A]

EC50 (SK-OV-3 cells; [3]): < 0.01 µM | IC50 (BIR-3 domain of cIAP-1 [1]): < 0.01 µM | IC50 (BIR-3 domain of XIAP): > 0.1 µM
Molecule: CN[C@@H](C)C(=O)N[C@H](C(=O)N1CCC[C@H]1Cc1c[nH]c2ccc(C)cc12)[C@@H](C)O [C]

EC50 (SK-OV-3 cells; SK-OV-3, Table 10, read-out: MTT (SKOV-3)): < 0.01 µM | EC50 (SK-OV-3 cells; [3]): < 0.01 µM | IC50 (BIR-3 domain of cIAP-1 [1]): < 0.01 µM | IC50 (BIR-3 domain of cIAP-1 [1]; read-out: IC50 (cIAP-1), Table 10): < 0.01 µM | binding to cIAP-1 more tightly than to XIAP (BIR-3 domain of cIAP-1 [2]): 117 fold | IC50 (BIR-3 domain of XIAP): > 0.1 µM | IC50 (BIR-3 domain of XIAP; read-out: IC50 (XIAP), Table 10): > 0.1 µM
Molecule: CC(C)[C@H](NC(=O)CN)C(=O)N1C[C@@H](Oc2ccccc2)C[C@H]1Cc1coc2ccccc12 [Compound I]
synergistic toxicity with SN-38 (synergistic volume) (OVCAR-3 cell line): comparable

IC50 (BIR-3 domain of cIAP-1 [1]): > 1 µM | IC50 (BIR-3 domain of XIAP): > 1 µM
Molecule: CN[C@@H](C)C(=O)N[C@H](C(=O)N1C[C@@H](OC(C)=O)C[C@H]1Cc1c[nH]c2ccccc12)[C@@H](C)O [D]

EC50 (SK-OV-3 cells; [3]): 0.01 to 0.1 µM | IC50 (BIR-3 domain of cIAP-1 [1]): < 0.01 µM | IC50 (BIR-3 domain of XIAP): 0.01 to 0.1 µM
Molecule: CN[C@@H](C)C(=O)N[C@H](C(=O)N1CCC[C@H]1Cc1c[nH]c2ccc(C)cc12)C(C)C [G]

EC50 (SK-OV-3 cells; [3]): > 0.1 µM | IC50 (BIR-3 domain of cIAP-1 [1]): > 0.1 µM | IC50 (BIR-3 domain of XIAP): > 0.1 µM
Molecule: CC(C)[C@H](NC(=O)[C@H](C)N)C(=O)N1CCC[C@H]1Cc1c(-c2ccc(-c3oc4ccccc4c3C[C@@H]3CCCN3C(=O)[C@@H](NC(=O)[C@H](C)N)C(C)C)cc2)[nH]c2ccccc12 [J]

EC50 (SK-OV-3 cells; [3]): 0.01 to 0.1 µM | IC50 (BIR-3 domain of cIAP-1 [1]): 0.01 to 0.1 µM | IC50 (BIR-3 domain of XIAP): 0.01 to 0.1 µM
Molecule: CN[C@@H](C)C(=O)N[C@H](C(=O)N1CCC[C@H]1Cc1c(-c2ccc(N3CCOCC3)cc2)n(CCOCCOCCOC)c2cc(F)ccc12)C(C)(C)C [R]
